Assay results as given in patent US20130143929A1, “FUNGICIDAL IMIDAZOLES” (EI DU PONT DE NEMOURS AND COMPANY, priority 2010, published 2013).
Marks after values point to notes of the source that are not given here.

How the values were obtained:
Type in all cases: in vivo
[1] = test system: Botrytis cinerea (the causal agent of tomato Botrytis); assay: Test C: tomato Botrytis, preventive spray on tomato seedlings, visual disease rating; conditions: for Test C rating (100 = 100% disease control, 0 = no disease control relative to the controls): tomato Botrytis, preventive spray on tomato seedlings; for Test C rating (% disease control, tomato Botrytis): 100 = 100% disease control
Text: (§1) General protocol for preparing test suspensions for Tests A-D: the test compounds were first dissolved in acetone in an amount equal to 3% of the final volume and then suspended at the desired concentration (in ppm) in acetone and purified water (50/50 mix by volume) containing 250 ppm of the surfactant Trem® 014 (polyhydric alcohol esters). The resulting test suspensions were then used in Tests A-D. Spraying a 200 ppm test suspension to the point of run-off on the test plants was the equivalent of a rate of 800 g/ha.
(§2) The test suspension was sprayed to the point of run-off on tomato seedlings. The following day the seedlings were inoculated with a spore suspension of Botrytis cinerea (the causal agent of tomato Botrytis) and incubated in a saturated atmosphere at 20° C. for 48 h, and then moved to a growth chamber at 24° C. for 3 days, after which time visual disease ratings were made.
(§3) Results for Tests A-E are given in Table A. In the Table, a rating of 100 indicates 100% disease control and a rating of 0 indicates no disease control (relative to the controls). A dash (—) indicates no test results. An asterisk “*” next to the rating value indicates a 40 ppm test suspension was used.

[2] = test system: Blumeria graminis f. sp. tritici (also known as Erysiphe graminis f. sp. tritici, the causal agent of wheat powdery mildew); assay: Test D: wheat powdery mildew, preventive spray on wheat seedlings, visual disease rating; conditions: for Test D rating (100 = 100% disease control, 0 = no disease control relative to the controls): wheat powdery mildew, preventive spray on wheat seedlings; for Test D rating (% disease control, wheat powdery mildew): 100 = 100% disease control
Text: as §1
The test suspension was sprayed to the point of run-off on wheat seedlings. The following day the seedlings were inoculated with a spore dust of Blumeria graminis f. sp. tritici, (also known as Erysiphe graminis f. sp. tritici, the causal agent of wheat powdery mildew) and incubated in a growth chamber at 20° C. for 8 days, after which time visual disease ratings were made.
as §3

[3] = test system: Septoria tritici (the causal agent of wheat leaf blotch); assay: Test B: wheat leaf blotch, preventive spray on wheat seedlings, visual disease rating; conditions: for Test B rating (100 = 100% disease control, 0 = no disease control relative to the controls): wheat leaf blotch, preventive spray on wheat seedlings; for Test B rating (% disease control, wheat leaf blotch): 100 = 100% disease control
Text: as §1
as §2, with “wheat” for “tomato”, “Septoria tritici” for “Botrytis cinerea”, “wheat leaf blotch)” for “tomato Botrytis)”, “24°” for “20°”, “20°” for “24°”, “19” for “3”
as §3

[4] = test system: Puccinia recondite f. sp. tritici (the causal agent of wheat leaf rust); assay: Test A: wheat leaf rust, preventive spray on wheat seedlings, visual disease rating; conditions: for Test A rating (100 = 100% disease control, 0 = no disease control relative to the controls): wheat leaf rust, preventive spray on wheat seedlings; for Test A rating (% disease control, wheat leaf rust): 100 = 100% disease control
Text: as §1
as §2, with “wheat” for “tomato”, “Puccinia recondite f. sp. tritici” for “Botrytis cinerea”, “wheat leaf rust)” for “tomato Botrytis)”, “24” for “48”, “20°” for “24°”, “7” for “3”
as §3

[5] = no asterisk (standard test suspension concentration, not 40 ppm)
[6] = asterisk: 40 ppm test suspension
[7] = no asterisk: standard test suspension concentration, 0 = no control relative to controls
[8] = asterisk: 40 ppm test suspension, 0 = no control

SMILES | Test C rating (100 = 100% disease control, 0 = no disease control relative to the controls) [1, 5] [%] | Test D rating (100 = 100% disease control, 0 = no disease control relative to the controls) [2, 5] [%] | Test B rating (100 = 100% disease control, 0 = no disease control relative to the controls) [3, 5] [%] | Test A rating (100 = 100% disease control, 0 = no disease control relative to the controls) [4, 5] [%] | Test C rating (100 = 100% disease control, 0 = no disease control relative to the controls) [1, 6] | Test D rating (100 = 100% disease control, 0 = no disease control relative to the controls) [2, 6] | Test B rating (100 = 100% disease control, 0 = no disease control relative to the controls) [3, 6] | Test A rating (100 = 100% disease control, 0 = no disease control relative to the controls) [4, 6] | further results
Cc1cc(F)ccc1C(O)c1c(Cl)nc(Cl)n1-c1ccc(F)cc1F (centres unmarked) [compound 77] | 94 | 95 | 100 | 100 | – | – | – | – | –
OC(c1ccc(F)cc1Cl)c1c(Cl)nc(C2CC2)n1-c1c(F)cccc1Br (centres unmarked) [compound 151] | 0 | 64 | 100 | 74 | – | – | – | – | –
OC(c1ccc(F)cc1F)c1c(Br)nc(Br)n1-c1ccc(F)cc1Cl (centres unmarked) [compound 65] | – | – | – | – | 100* % | 64* % | 100* % | 100* % | –
COc1ccc(C(O)c2cnc(C)n2-c2ccc(F)cc2Br)c(Cl)c1 (centres unmarked) [compound 312] | – | – | – | – | 0* % | 0* % | 12* % | 28* % | –
COc1ccc(C(O)c2c(Cl)nc(C)n2-c2c(F)cccc2F)c(Cl)c1 (centres unmarked) [compound 143] | – | – | – | – | 99* % | 99* % | 100* % | 100* % | –
Cc1cc(F)ccc1C(O)c1cnc(C)n1-c1ccc(F)cc1Cl (centres unmarked) [compound 395] | – | – | – | – | – | – | – | – | Test C rating (% disease control, tomato Botrytis) [1, 7]: 21%; Test D rating (% disease control, wheat powdery mildew) [2, 7]: 35%; Test B rating (% disease control, wheat leaf blotch) [3, 7]: 100%; Test A rating (% disease control, wheat leaf rust) [4, 7]: 99%
Cc1nc(Cl)n(-c2ccc(F)cc2Cl)c1C(O)c1c(F)cc(F)cc1F (racemic) [compound 30] | 100 | 100 | 100 | 100 | – | – | – | – | –
Cc1nc(Cl)c(C(O)c2ccc(F)cc2Cl)n1-c1c(F)cc(C#N)cc1F (centres unmarked) [compound 198] | – | – | – | – | 0* % | 0* % | 100* % | 97* % | –
Cc1nc(Br)c(C(O)c2ccc(F)cc2F)n1-c1ccc(F)cc1Br (centres unmarked) [compound 334] | – | – | – | – | 99* % | 64* % | 100* % | 99* % | –
Cc1cccc(C)c1-n1c(C)nc(Br)c1C(O)c1ccc(F)cc1Cl (racemic) [compound 225] | 37 | 0 | 83 | 89 | – | – | – | – | –
Cc1cccc(Cl)c1-n1c(C)nc(Cl)c1C(O)c1ccc(F)cc1Cl (centres unmarked) [compound 344] | – | – | – | – | 54* % | 72* % | 95* % | 99* % | –
Cc1nc(C)n(-c2c(F)cc(Cl)cc2F)c1C(O)c1ccc(F)cc1F (racemic) [compound 246] | – | – | – | – | 37* % | 0* % | 100* % | 100* % | –
Cc1nc(Br)c(C(O)c2c(F)cc(F)cc2F)n1-c1ccc(Cl)cc1Cl (centres unmarked) [compound 365] | 100 | 64 | 100 | 100 | – | – | – | – | –
COc1cc(F)c(-n2c(C(O)c3ccc(F)cc3F)cnc2C)c(F)c1 (centres unmarked) [compound 404] | – | – | – | – | – | – | – | – | Test C rating (% disease control, tomato Botrytis) [1, 7]: 0%; Test D rating (% disease control, wheat powdery mildew) [2, 7]: 0%; Test A rating (% disease control, wheat leaf rust) [4, 7]: 98%
COc1ccc(C(O)c2c(Br)nc(C)n2-c2c(F)cc(F)cc2Br)c(F)c1 (centres unmarked) [compound 348] | – | – | – | – | 98* % | 90* % | 100* % | 100* % | –
COc1cc(F)c(-n2c(C)nc(Cl)c2C(O)c2ccc(F)cc2F)c(F)c1 (centres unmarked) [compound 411] | – | – | – | – | – | – | – | – | Test C rating (% disease control, tomato Botrytis) [1, 8]: 85* %; Test D rating (% disease control, wheat powdery mildew) [2, 8]: 50* %; Test B rating (% disease control, wheat leaf blotch) [3, 8]: 100* %; Test A rating (% disease control, wheat leaf rust) [4, 8]: 100* %
COc1ccc(C(O)c2c(C)nc(Cl)n2-c2ccc(Cl)cc2Cl)c(Cl)c1 (racemic) [compound 219] | – | – | – | – | 98* % | 21* % | 100* % | 99* % | –
Cc1nc(Br)c(C(O)c2ccc(F)cc2Cl)n1-c1c(F)cc(F)cc1Br (centres unmarked) [compound 136] | 100 | 79 | 100 | 100 | – | – | – | – | –
Cc1cc(F)ccc1C(O)c1c(Cl)nc(C)n1-c1ccc(F)cc1Cl (centres unmarked) [compound 398] | – | – | – | – | – | – | – | – | Test C rating (% disease control, tomato Botrytis) [1, 7]: 46%; Test D rating (% disease control, wheat powdery mildew) [2, 7]: 0%; Test B rating (% disease control, wheat leaf blotch) [3, 7]: 100%; Test A rating (% disease control, wheat leaf rust) [4, 7]: 100%
Cc1nc(Cl)n(-c2c(F)cc(F)cc2Cl)c1C(O)c1ccc(F)cc1Cl (racemic) [compound 9] | 100 | 100 | 100 | 100 | – | – | – | – | –
OC(c1ccc(F)cc1F)c1cnc(C2CC2)n1-c1c(F)cccc1Br (centres unmarked) [compound 152] | 0 | 0 | 0 | 74 | – | – | – | – | –
Cc1nc(Cl)n(-c2ccc(F)cc2Cl)c1C(O)c1c(F)ccc(Br)c1Cl (racemic) [compound 34] | 99 | – | 98 | 99 | – | – | – | – | –
COc1cc(F)c(C(O)c2c(Br)ncn2-c2ccc(F)cc2Cl)c(F)c1 (racemic) [compound 232] | – | – | – | – | – | 0* % | 59* % | 100* % | –
